Assay results published in patent US8614209B2, “Amido-thiophene compounds and their use” (The University of Edinburgh, priority 2008, dated 2013).

biological target: T1, human 11β-HSD2 (Homo sapiens, UniProt P80365); assay: Cellular in vitro 11β-HSD2 enzyme inhibition assay (CHO cells, TLC/phosphoimager); format: cell-based; conditions: CHO cells stably transfected with human 11β-HSD2; Table 1
T1 construct: CHO cells stably transfected with the full-length gene coding for human 11β-HSD2 were used; expressed in transfected cells; host or cells: CHO
T1 sequence (P80365 1-405): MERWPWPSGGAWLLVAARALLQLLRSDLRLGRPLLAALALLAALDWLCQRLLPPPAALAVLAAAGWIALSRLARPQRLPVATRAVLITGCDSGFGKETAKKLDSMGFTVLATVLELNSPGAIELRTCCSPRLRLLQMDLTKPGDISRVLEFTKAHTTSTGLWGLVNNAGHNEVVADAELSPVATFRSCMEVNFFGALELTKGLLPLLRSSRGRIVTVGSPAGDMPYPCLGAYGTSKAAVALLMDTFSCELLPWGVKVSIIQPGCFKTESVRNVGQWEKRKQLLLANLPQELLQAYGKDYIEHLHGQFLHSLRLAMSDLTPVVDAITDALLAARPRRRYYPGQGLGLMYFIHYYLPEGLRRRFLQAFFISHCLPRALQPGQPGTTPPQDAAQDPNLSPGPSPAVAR
Method: Cellular In Vitro 11β-HSD2 Enzyme Inhibition Assay
For measurement of inhibition of 11β-HSD2, CHO cells stably transfected with the full-length gene coding for human 11β-HSD2 were used. Assays were carried out in 96-well microplates containing 1×10^5 cells/well. Controls and compounds were plated as above, so that the final DMSO concentration in each well was 1%.
The assay solutions were transferred to glass tubes and 20 μL ethyl acetate added to each tube. Each tube was vortexed thoroughly and the upper layer containing the tritiated steroid transferred to a fresh glass tube. The solvent was evaporated by placing the tubes in a heating block at 65° C. under a stream of Nitrogen gas. 20 μL ethanol was added to each of the dried samples and vortexed briefly. Each sample was applied to a silica TLC plate and the plate dried. The plate was placed vertically in a glass tank containing 92% chloroform:8% ethanol and the solvent allowed to rise up the plate. The plate was dried, placed in an imaging cassette, and overlayed with a tritium imaging plate for 1-2 days. The amount of enzyme inhibition in each sample was determined by measuring the intensity of the substrate and product spots using a phosphoimager.
IC50 values for inhibitors were determined as described for 118-HSD1.

IC50, > 10 µM:
O=C(c1csc(-n2ccnc2)c1)N1CCCC2CCCCC21 (centres unmarked) [FF-06, (5-Imidazol-1-yl-thiophen-3-yl)-(octahydro-quinolin-1-yl)-methanone]
CC1(C)CC2CC(C)(CN2C(=O)c2csc(-c3ccncc3)c2)C1 (centres unmarked) [GG-01]
O=C(c1cc(-c2ccccc2)sc1Cl)N1CCCCC1 [AA-30]
CC1(C)CC2CC(C)(CN2C(=O)c2cc(-c3ccccc3)sc2Cl)C1 (centres unmarked) [CC-02]
O=C(c1cc(-c2ccccn2)sc1Cl)N1CCCCCC1 [EE-12]
